Measurements taken from patent publication US10611750B2, “Tetrahydroquinoline compositions as bet bromodomain inhibitors” (FORMA Therapeutics, Inc., priority 2013, dated 2020).

Assays:
[1] = biological target: T1, BRD4 Bromodomain 1 (BRD4 BD1) (Homo sapiens, UniProt O60885); experiment: AlphaScreen binding assay, BRD4 BD1; conditions: His-tagged BRD4 BD1 50 nM, biotinylated H4 (1-21) K5/8/12/16 tetra-acetylated peptide 50 nM, compounds listed under IC50 range headings
T1 construct: 44-168 and BRD4 BD2
Method in brief: (§1)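 Compound dilution series were mixed with His-tagged BRD4 bromodomain and biotinylated tetra-acetylated H4 (1-21) peptide at pH 7.3 (BD1 and peptide at 50 nM, BD2 and peptide at 100 nM). Donor and acceptor beads were then added, and plates were equilibrated at least 1 h before reading. IC50 values were fitted with a four-parameter logistic model.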

[2] = biological target: T2, BRD4 Bromodomain 2 (BRD4 BD2) (Homo sapiens, UniProt O60885); experiment: AlphaScreen binding assay, BRD4 BD2; conditions: His-tagged BRD4 BD2 100 nM, biotinylated H4 (1-21) K5/8/12/16 tetra-acetylated peptide 100 nM, compounds listed under IC50 range headings
T2 construct: 333-460 were cloned, expressed, and purified to homogeneity
Method in brief: as §1

[3] = test system: acute myelocytic leukemia (AML) cell line MV4-11; experiment: Oncology cell growth assay (3-day proliferation, CellTiter-Glo); type: cell-based; conditions: Homo sapiens, MV4-11, 72 h, MV4-11 cells, 3000 cells/well, compounds listed under IC50 range headings, read-out: MV411 IC50 (gIC50, inhibition of proliferation)
Method in brief: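 A 3-day proliferation test used MV4-11 cells seeded at 3000 per well with eight compound concentrations (10 μM top, 3-fold dilution) at 37° C in 5% CO2. CellTiter-Glo luminescence defined viable cell signal. A four-parameter logistic curve against DMSO and background wells gave the gIC50.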

IC50 [1]	IC50 [2]	IC50 [3]	SMILES
1000 to 10000 nM	50 to 500 nM	< 500 nM	COC(=O)N1c2ccc(-c3cnn(C4CCNCC4)c3)c(Oc3ncc(F)cn3)c2CC[C@@H]1C [I-533]
1000 to 10000 nM	50 to 500 nM	500 to 1000 nM	COC(=O)N1c2ccc(-c3cnn(C4CCNCC4)c3)c(Oc3ncc(C(F)(F)F)cn3)c2CC[C@@H]1C [I-534]
1000 to 10000 nM	50 to 500 nM	< 500 nM	COC(=O)N1c2ccc(-c3cnn(C4CCNCC4)c3)c(Oc3ncc(C)cn3)c2CC[C@@H]1C [I-535]
1000 to 10000 nM	50 to 500 nM	500 to 1000 nM	COC(=O)N1c2ccc(-c3cnn(C4CCNCC4)c3)c(Oc3ncc(C(F)(F)F)cc3F)c2CC[C@@H]1C [I-536]
1000 to 10000 nM	50 to 500 nM	500 to 1000 nM	COC(=O)c1ccc(Oc2c(-c3cnn(C4CCNCC4)c3)ccc3c2CC[C@H](C)N3C(=O)OC)nc1 [I-537]
1000 to 10000 nM	50 to 500 nM	> 1000 nM	COC(=O)N1c2ccc(-c3cnn(C4CCNCC4)c3)c(Oc3ccc(C(N)=O)cn3)c2CC[C@@H]1C [I-538]
1000 to 10000 nM	50 to 500 nM	< 500 nM	C[C@H]1CCc2c(ccc(-c3cnn(C4CCNCC4)c3)c2Oc2ncccc2C(F)(F)F)N1C(=O)C1CC1 [I-539]
100 to 1000 nM	50 to 500 nM	< 500 nM	C[C@H]1CCc2c(ccc(-c3cnn(C4CCNCC4)c3)c2Oc2ncccc2C#N)N1C(=O)C1CC1 [I-540]
1000 to 10000 nM	50 to 500 nM	< 500 nM	C[C@H]1CCc2c(ccc(-c3cnn(C4CCNCC4)c3)c2Oc2ccc(C(F)(F)F)cn2)N1C(=O)C1CC1 [I-541]
100 to 1000 nM	50 to 500 nM	< 500 nM	CC(=O)N1c2ccc(-c3cnn(CCO)c3)c(Oc3ncc(C(F)(F)F)cn3)c2CC[C@@H]1C [I-542]
100 to 1000 nM	50 to 500 nM	< 500 nM	CC(=O)N1c2ccc(-c3cnn(CCO)c3)c(Oc3ncc(F)cn3)c2CC[C@@H]1C [I-543]
100 to 1000 nM	< 50 nM	< 500 nM	CC(=O)N1c2ccc(-c3cnn(CCO)c3)c(Oc3ncc(C(C)C)cn3)c2CC[C@@H]1C [I-545]
100 to 1000 nM	< 50 nM	500 to 1000 nM	COc1cnc(Oc2c(-c3cnn(CCO)c3)ccc3c2CC[C@H](C)N3C(C)=O)nc1 [I-546]
100 to 1000 nM	< 50 nM	< 500 nM	CC(=O)N1c2ccc(-c3cnn(CCO)c3)c(Oc3ncc(C4CC4)cn3)c2CC[C@@H]1C [I-547]
1000 to 10000 nM	50 to 500 nM	< 500 nM	CC(=O)N1c2ccc(-c3ccc4c(c3)CCN4S(C)(=O)=O)c(Oc3ncc(F)cn3)c2CC[C@@H]1C [I-548]
1000 to 10000 nM	50 to 500 nM	500 to 1000 nM	CC(=O)N1c2ccc(-c3ccc(S(C)(=O)=O)cc3)c(Oc3ncc(F)cn3)c2CC[C@@H]1C [I-549]
100 to 1000 nM	< 50 nM	< 500 nM	CC(=O)N1c2ccc(-c3cnn(CCS(C)(=O)=O)c3)c(Oc3ncc(F)cn3)c2CC[C@@H]1C [I-550]
100 to 1000 nM	< 50 nM	< 500 nM	CC(=O)N1c2ccc(-c3cnn(CC(C)(C)O)c3)c(Oc3ncc(F)cn3)c2CC[C@@H]1C [I-551]
100 to 1000 nM	< 50 nM	< 500 nM	CC(=O)N1c2ccc(-c3cnn(C(C)(C)CO)c3)c(Oc3ncc(F)cn3)c2CC[C@@H]1C [I-552]
100 to 1000 nM	< 50 nM	< 500 nM	CC(=O)N1c2ccc(-c3ccc(N4CCCS4(=O)=O)cc3)c(Oc3ncc(F)cn3)c2CC[C@@H]1C [I-553]
1000 to 10000 nM	50 to 500 nM	> 1000 nM	COC(=O)N1c2ccc(-c3cnn(CCS(C)(=O)=O)c3)c(Oc3ccc(C(F)(F)F)cn3)c2CC[C@@H]1C [I-554]
1000 to 10000 nM	50 to 500 nM	> 1000 nM	COC(=O)N1c2ccc(-c3cnn(CC(C)(C)O)c3)c(Oc3ccc(C(F)(F)F)cn3)c2CC[C@@H]1C [I-555]
1000 to 10000 nM	50 to 500 nM	500 to 1000 nM	COC(=O)N1c2ccc(-c3cnn(CCO)c3)c(Oc3ccc(C(F)(F)F)cn3)c2CC[C@@H]1C [I-556]
1000 to 10000 nM	50 to 500 nM	> 1000 nM	COC(=O)N1c2ccc(-c3cnn(C4CC4)c3)c(Oc3ccc(C(F)(F)F)cn3)c2CC[C@@H]1C [I-557]
1000 to 10000 nM	50 to 500 nM	> 1000 nM	COC(=O)N1c2ccc(-c3cnn(CCS(C)(=O)=O)c3)c(Oc3cnccn3)c2CC[C@@H]1C [I-558]
1000 to 10000 nM	50 to 500 nM	500 to 1000 nM	COC(=O)N1c2ccc(-c3cnn(CC(C)(C)O)c3)c(Oc3cnccn3)c2CC[C@@H]1C [I-559]
1000 to 10000 nM	50 to 500 nM	500 to 1000 nM	COC(=O)N1c2ccc(-c3cnn(CCO)c3)c(Oc3cnccn3)c2CC[C@@H]1C [I-560]
1000 to 10000 nM	50 to 500 nM	500 to 1000 nM	COC(=O)N1c2ccc(-c3cnn(C4CC4)c3)c(Oc3cnccn3)c2CC[C@@H]1C [I-561]
1000 to 10000 nM	50 to 500 nM	500 to 1000 nM	COC(=O)N1c2ccc(-c3cnn(CCS(C)(=O)=O)c3)c(Oc3ncccc3C(F)(F)F)c2CC[C@@H]1C [I-562]

The remaining lines, values behind:

SMILES	IC50 [1]	IC50 [2]	IC50 [3]
CC(=O)N1c2ccc(-c3cnn(C4CCNCC4)c3)c(Oc3ccc(C(F)(F)F)cn3)c2CC[C@@H]1C [I-512]	100 to 1000 nM	50 to 500 nM	< 500 nM
CC(=O)N1c2ccc(-c3cnn(C4CCNCC4)c3)c(Oc3ncccn3)c2CC[C@@H]1C [I-513]	1000 to 10000 nM	50 to 500 nM	< 500 nM
CC(=O)N1c2ccc(-c3cnn(C4CCNCC4)c3)c(Oc3nccc(C(F)(F)F)n3)c2CC[C@@H]1C [I-514]	1000 to 10000 nM	50 to 500 nM	< 500 nM
CC(=O)N1c2ccc(-c3cnn(C4CCNCC4)c3)c(Oc3ccnc(C(F)(F)F)n3)c2CC[C@@H]1C [I-515]	1000 to 10000 nM	50 to 500 nM	500 to 1000 nM
CC(=O)N1c2ccc(-c3cnn(C4CCNCC4)c3)c(Oc3cc(N4CCOCC4)ncn3)c2CC[C@@H]1C [I-516]	1000 to 10000 nM	50 to 500 nM	500 to 1000 nM
CC(=O)N1c2ccc(-c3cnn(C4CCNCC4)c3)c(Oc3cc(C4CC4)ncn3)c2CC[C@@H]1C [I-517]	1000 to 10000 nM	50 to 500 nM	< 500 nM
CC(=O)N1c2ccc(-c3cnn(C4CCNCC4)c3)c(Oc3ncc(C4CC4)cn3)c2CC[C@@H]1C [I-518]	100 to 1000 nM	50 to 500 nM	< 500 nM
CC(=O)N1c2ccc(-c3cnn(C4CCNCC4)c3)c(Oc3ncc(C(F)(F)F)cn3)c2CC[C@@H]1C [I-519]	100 to 1000 nM	50 to 500 nM	< 500 nM
CC(=O)N1c2ccc(-c3cnn(C4CCNCC4)c3)c(Oc3ncccc3C(N)=O)c2CC[C@@H]1C [I-520]	1000 to 10000 nM	50 to 500 nM	> 1000 nM
CC(=O)N1c2ccc(-c3cnn(C4CCNCC4)c3)c(Oc3ncc(C(F)(F)F)cc3F)c2CC[C@@H]1C [I-521]	100 to 1000 nM	< 50 nM	< 500 nM
COC(=O)c1ccc(Oc2c(-c3cnn(C4CCNCC4)c3)ccc3c2CC[C@H](C)N3C(C)=O)nc1 [I-522]	1000 to 10000 nM	50 to 500 nM	500 to 1000 nM
CC(=O)N1c2ccc(-c3cnn(C4CCNCC4)c3)c(Oc3ccc(C(N)=O)cn3)c2CC[C@@H]1C [I-523]	1000 to 10000 nM	50 to 500 nM	> 1000 nM
COC(=O)N1c2ccc(-c3cnn(C4CCNCC4)c3)c(Oc3ccc(C(F)(F)F)cn3)c2CC[C@@H]1C [I-524]	1000 to 10000 nM	50 to 500 nM	< 500 nM
COC(=O)N1c2ccc(-c3cnn(C4CCNCC4)c3)c(Oc3ncccn3)c2CC[C@@H]1C [I-525]	1000 to 10000 nM	50 to 500 nM	< 500 nM
COC(=O)N1c2ccc(-c3cnn(C4CCNCC4)c3)c(Oc3cnccn3)c2CC[C@@H]1C [I-526]	1000 to 10000 nM	50 to 500 nM	< 500 nM
COC(=O)N1c2ccc(-c3cnn(C4CCNCC4)c3)c(Oc3ncccc3C(F)(F)F)c2CC[C@@H]1C [I-527]	1000 to 10000 nM	50 to 500 nM	< 500 nM
COC(=O)N1c2ccc(-c3cnn(C4CCNCC4)c3)c(Oc3nccc(C(F)(F)F)n3)c2CC[C@@H]1C [I-528]	1000 to 10000 nM	50 to 500 nM	< 500 nM
COC(=O)N1c2ccc(-c3cnn(C4CCNCC4)c3)c(Oc3ccnc(C(F)(F)F)n3)c2CC[C@@H]1C [I-529]	1000 to 10000 nM	50 to 500 nM	< 500 nM
COC(=O)N1c2ccc(-c3cnn(C4CCNCC4)c3)c(Oc3cc(N4CCOCC4)ncn3)c2CC[C@@H]1C [I-530]	≥ 10000 nM	≥ 500 nM	> 1000 nM
COC(=O)N1c2ccc(-c3cnn(C4CCNCC4)c3)c(Oc3cc(C4CC4)ncn3)c2CC[C@@H]1C [I-531]	1000 to 10000 nM	50 to 500 nM	< 500 nM
COC(=O)N1c2ccc(-c3cnn(C4CCNCC4)c3)c(Oc3ncc(C4CC4)cn3)c2CC[C@@H]1C [I-532]	1000 to 10000 nM	50 to 500 nM	500 to 1000 nM
